Reference: patent US7618984B2, “Sulfonamide compound” (Asahi Kasei Pharma Corporation, priority 2005, dated 2009)

Experiments:
neutrophils = assay: Neutrophil migration inhibitory action, Boyden Chamber, FMLP (Test Example 3); assay type: cell-based; conditions: 0.5 h, human neutrophils, FMLP 1 μM, 37° C., 30 minutes, read-out: IC50, compound concentration providing a migration inhibition ratio of 50%
Procedure: Neutrophils were isolated from 50 to 100 ml of peripheral blood collected from healthy human donors by the method described in Test Example 1 to obtain a cell suspension (8×10^6/ml). Subsequently, solutions of a test compound at various concentrations were introduced into wells of a 96-well plate in a volume of 125 μl per well, the cell suspension of an equivalent volume was added to it and the plate was preincubated at room temperature for 5 minutes. During the preincubation, FMLP (1 μM, Sigma) solution was added to the lower chamber to set Boyden Chamber, the preincubated cell suspension was added to the upper chamber in a volume of 200 μl per well, and the cells were allowed to migrate at 37° C. under 5% carbon dioxide for 30 minutes. The filter after the migration was collected, and the non-migrated cells adhered to the surface that faced the upper chamber were carefully wiped off. Then, the migrated cells on the back surface were stained with DifQuick dye solution (International Reagents), washed with water and dried, and then absorbance was measured at 595 nm. The inhibition ratio against migration (%) of a test compound was calculated by using the following equation: Migration inhibition ratio(%)=(1−Absorbance of the group with addition of test compound/Absorbance of the group without addition of test compound)×100
Further, the migration inhibitory ratio was calculated with changing the test compound concentration, and a compound concentration providing an inhibition ratio of 50% was obtained as IC50.

[1] = test system: rabbit normal intraocular pressure; assay: Intraocular pressure reducing action (Test Example 2); assay type: in vivo, Japanese white rabbit; conditions: Oryctolagus cuniculus, topical; 3 mM aqueous solution, 50 μl to the left eye; measured after 2, 4 and 6 hours; read-out: intraocular pressure reducing degree (max ΔIOP / intraocular pressure value immediately before administration × 100)
Procedure: A Japanese white rabbit having a body weight of about 2 kg was placed in a positioner and naturalized for one week before the experiment. An opthalmologic local anesthesant (Benoxil) was administered to both eyes, and then intraocular pressure was measured by using a tonometer (Classic 30, Solan). A 3 mM aqueous solution of a test compound was administered in a volume of 50 μl to the left eye, and the right eye was not treated (control eye). The intraocular pressure values were measured for the left and right eyes immediately before, and 2, 4 and 6 hours after the administration of the aqueous solution of the test compound, and the difference of the measured values for the left and right eyes was considered an intraocular pressure reduction value of the test medicament at each measurement time. The largest difference of the values for the left and right eyes among the measured values at the measurement times (after 2, 4 and 6 hours) was considered the maximum intraocular pressure reduction value (max ΔIOP) of each test medicament. The intraocular pressure reducing degree representing the intraocular pressure reducing action of each test medicament was calculated according to the following formula. Since rabbits show significant daily variation of intraocular pressure, daily variation is added when change of intraocular pressure is measured over time, and the intraocular pressure reducing action may be overestimated. Therefore, we used this calculation method of intraocular pressure reduction value in order to minimize the influence of the variation. Intraocular pressure reducing degree (%)=(max ΔIOP/Intraocular pressure value immediately before administration)×100

[2] = test system: phosphorylation of myosin regulatory light chain; assay: Inhibitory action on phosphorylation of myosin regulatory light chain (Test Example 1); assay type: cell-based; conditions: Neutrophil, 5 min; human peripheral blood neutrophils, 25° C. for 5 minutes; read-out: IC50, compound concentration providing a phosphorylation inhibition ratio of 50% (myosin regulatory light chain)
Procedure: A volume of 50 to 100 ml of peripheral blood collected from healthy volunteers was centrifuged by using Mono-Poly separator solution (Dainippon Pharmaceutical) to prepare a neutrophil containing fraction. The neutrophils were washed with PBS(−) and resuspended in Hanks' Balanced Salt Solution (HBSS+, Gibco) to prepare a cell suspension (8×10^6/ml). The cell suspension was diluted to 5×10^6/ml, introduced into Eppendorf tubes in a volume of 0.4 ml each, then 0.1 ml each of solutions of a test compound at various concentrations were added to the suspension and allowed to react at 25° C. for 5 minutes. After the reaction, 0.1 ml of trichloroacetic acid solution was added to each reaction mixture, the reaction mixture was gently shaken and centrifuged at 12,000 rpm (4° C., 5 minutes), and the supernatant was removed. Subsequently, 3 μl of 1 M Tris solution was added to the residue, the mixture was further mixed with 50 μl of extraction buffer (8 M urea, 0.02% 2-mercaptoethanol, 0.002% bromophenol blue) and left stand at room temperature for 1 hour. Then, the reaction mixture was loaded on a spin column (0.45 μm, Millipore) to remove the insoluble solids and a sample buffer for SDS polyacrylamide gel electrophoresis (25 mM, Tris-HCl pH 6.8, 2.5% 2-mercaptoethanol, 2% sodium dodecylsulfate, 5% sucrose, 0.002% bromophenol blue as final concentrations) was added, and 10 μl of each sample was subjected to electrophoresis.
The gel after the electrophoresis was blotted on a nitrocellulose membrane (BioRad), blocked with 5% skim milk, and reacted successively with antibodies pLC1 (Sakurada K. et al, Am. J. Physiol., 274, C1563-C1572 (1998)), which specifically recognize the phosphorylated myosin regulatory light chain, and donkey anti-mouse IgG (Chemicon) conjugated with horseradish peroxidase. The band of the phosphorylated myosin regulatory light chain was detected on a film by using ECL Plus Kit (Amersham Pharmacia Biotech). This band was subjected to quantification using a densitometer. By using this value, the inhibitory ratio (%) for phosphorylation of the myosin regulatory light chain was calculated by using the following equation. Phosphorylation inhibition ratio(%)=1−(Band intensity of phosphorylated myosin regulatory light chain with addition of the test compound/Band intensity of phosphorylated myosin regulatory light chain without addition of the test compound)×100
Further, the phosphorylation inhibition ratio was calculated with changing the concentrations of the test compound, and a compound concentration providing an inhibition ratio of 50% was obtained as IC50.

N[C@H]1CCN(S(=O)(=O)c2cccc3cncc(Cl)c23)C1 [Example 19-1, (S)-3-Amino-1-(4-chloro-5-isoquinolinesulfonyl)pyrrolidine]
IC50 (neutrophils): 10 to 40 µM
inhibition in vivo at 3000 µM [1]: ≥ 20%
IC50 [2]: < 10 µM
